What was measured:
[1] = Pharmacokinetic assays after oral gavage administration to rats; assay type: in vivo, male SD rats; set-up: Tmax / AUC(0-∞): concentration or dose not given beside the values; AUMC(0-t) / AUMC(0-∞): unit not given here; details: for AUC(0-∞) / AUMC(0-t) / AUMC(0-∞) / CLz/F / Cmax / MRT(0-t) / MRT(0-∞) / Tmax / VRT(0-t) / VRT(0-∞) / t½z / AUC(0-t): plasma, oral gavage, male SD rats; for AUC(0-∞) / AUMC(0-t) / AUMC(0-∞) / CLz/F / Cmax / MRT(0-t) / MRT(0-∞) / Tmax / VRT(0-t) / VRT(0-∞) / t½z / AUC(0-t) / average retention time / time to peak concentration: active metabolite; for AUC(0-t): suspension in 0.5% CMC-Na; for AUC value of the active metabolite equivalent to % of that of the existing drugs: existing drugs administered at the same molar amount
Procedure: Instruments: ultra high performance liquid chromatography (Acquity UPLC, Waters) system; triple quadrupole mass spectrometer (Qtrap 5500, Sciex); high-speed refrigerated centrifuge (5430R, Eppendorf).
Chromatography Condition: Column: 2.1×50 mm (1.7 μm, BEH C18, Waters); Column Temperature: 45° C.; Mobile Phase: 0.1% aqueous solution of formic acid (A)/acetonitrile; Gradient: see the table below: […]
Mass Spectrometry Condition: Mode: positive ion multiple reaction monitoring (MRM); Curtain Gas: 45 psi; Gas 1:45 psi; Gas 2:45 psi; Ion Source Temperature: 500° C.; Ion Source Voltage: 5000 V. Precursor ions (Q1), product ions (Q3) and collision energy (CE) of some compounds are listed in the table below:
Experimental Animals: male SD rats, 6 in each group, weighing 200-220 grams, fasting overnight before experimentation.
Preparation of Drugs: lenalidomide, as a reference drug, and the test compounds (Compounds 1-10) were accurately weighed and dispensed in 0.5% CMC-Na solutions, resulting in suspensions.
Drug Administration to and Blood Collection from Animals: the drugs were oral gavage administered to the rats, and 100-μl blood samples were taken before administration and 10 min, 20 min, 40 min, 1 h, 1.5 h, 2 h, 3 h, 5 h, 8 h, 12 h, 21 h, 24 h and 30 h after administration. Each sample was placed in an ice bath, centrifuged for plasma collection, frozen and stored.
Plasma drug concentration Data and Calculation of Pharmacokinetic Parameters: Plasma drug concentration data was processed using MultiQuan 3.0 (Sciex), and pharmacokinetic parameters were calculated using DAS 2.0 software. Plasma drug concentrations were measured in ug/L.

[2] = patients, cited from earlier work

Row | SMILES | AUC(0-∞) [1] | AUMC(0-t) [1] | AUMC(0-∞) [1] | CLz/F [1] | Cmax [1] | MRT(0-t) [1] | MRT(0-∞) [1] | Tmax [1] | VRT(0-t) [1] | VRT(0-∞) [1] | t½z [1] | AUC(0-t) [1] | average retention time [1] | time to peak concentration [1] | AUC value of the active metabolite equivalent to % of that of the existing drugs [1] | myelosuppression grade ([2]; 50 mg per day, 28th day of treatment) | maximum tolerated dose (MTD) ([2]; clinical study)
1 | CCC(CC)COC(=O)Nc1cccc2c1CN(C1CCC(=O)NC1=O)C2=O (centres unmarked) [Compound 10] | 1765 ± 226.3 ng·h/mL | 13691 ± 587.2 | 14002 ± 589.6 | 65 ± 13 mL/min/kg | 163.2 ± 26.4 ng/mL | 5.2 ± 0.7 h | 5.2 ± 0.7 h | 5 ± 0.9 h | 14 ± 2.1 h^2 | 14.2 ± 2.2 h^2 | 3.1 ± 0.5 h | 1568 ± 205.4 ng·h/mL |  |  |  |  | 
2 | CC(C)OC(=O)Nc1cccc2c1CN(C1CCC(=O)NC1=O)C2=O (centres unmarked) [Compound 1] | 3889.6 ± 435.6 ng·h/mL | 32705.8 ± 3125.3 | 33484.2 ± 3040.7 | 71.7 ± 17 mL/min/kg | 543.6 ± 68.5 ng/mL | 4.5 ± 0.7 h | 4.6 ± 0.6 h | 0.8 ± 0.4 h | 13 ± 2.2 h^2 | 14.3 ± 2.1 h^2 | 2.8 ± 0.3 h | 3822 ± 424.5 ng·h/mL | 4.5 h | 0.8 h | 45% |  | 
3 | CCCCCCCCCCCOC(=O)Nc1cccc2c1CN(C1CCC(=O)NC1=O)C2=O (centres unmarked) [Compound 8] | 421.5 ± 55.6 ng·h/mL | 3596 ± 401.3 | 3689 ± 411.6 | 63.3 ± 15 mL/min/kg | 105.3 ± 24.1 ng/mL | 3.8 ± 0.5 h | 3.9 ± 0.5 h | 3.8 ± 1.1 h | 9.8 ± 1.5 h^2 | 9.9 ± 1.6 h^2 | 2.9 ± 0.3 h | 489.4 ± 50.3 ng·h/mL |  |  |  |  | 
4 | CCCCCCCCOC(=O)Nc1cccc2c1CN(C1CCC(=O)NC1=O)C2=O (centres unmarked) [Compound 7] | 584.3 ± 50.3 ng·h/mL | 3965 ± 415.1 | 4123 ± 446.1 | 68.3 ± 18.3 mL/min/kg | 135 ± 23.0 ng/mL | 3.8 ± 0.7 h | 3.8 ± 0.8 h | 3.5 ± 0.8 h | 10 ± 1.3 h^2 | 10.5 ± 1.3 h^2 | 3.1 ± 0.2 h | 503.2 ± 42.6 ng·h/mL |  |  |  |  | 
5 | Cc1oc(=O)oc1COC(=O)Nc1cccc2c1CN(C1CCC(=O)NC1=O)C2=O (centres unmarked) [Compound 6] | 5229.3 ± 755.1 ng·h/mL | 44683.6 ± 4956.6 | 45199.7 ± 4922.6 | 98.3 ± 17 mL/min/kg | 405.4 ± 89.8 ng/mL | 8.6 ± 0.6 h | 8.7 ± 0.6 h | 7 ± 1.5 h | 20 ± 2.5 h^2 | 21.8 ± 2.8 h^2 | 2.9 ± 0.4 h | 5217 ± 754.8 ng·h/mL | 8.6 h | 7 h | 61% |  | 
6 | Nc1cccc2c1CN(C1CCC(=O)NC1=O)C2=O (centres unmarked) [reference drug, lenalidomide] |  |  |  |  |  |  |  |  |  |  |  |  |  |  |  | Grade 3 myelosuppression | 25 mg per day
7 | CCCCCCCCCCCCCCCCCCOC(=O)Nc1cccc2c1CN(C1CCC(=O)NC1=O)C2=O (centres unmarked) [Compound 9] | 456 ± 48.0 ng·h/mL | 3126 ± 298.1 | 3360 ± 318.6 | 70 ± 16.7 mL/min/kg | 95.6 ± 22.2 ng/mL | 3.5 ± 0.6 h | 3.6 ± 0.7 h | 4.1 ± 0.8 h | 10 ± 1.5 h^2 | 10.2 ± 1.5 h^2 | 3.0 ± 0.4 h | 402.5 ± 51.6 ng·h/mL |  |  |  |  | 
8 | CCCCCCOC(=O)Nc1cccc2c1CN(C1CCC(=O)NC1=O)C2=O (centres unmarked) [Compound 5] | 1257 ± 209.6 ng·h/mL | 8749 ± 352.6 | 8954 ± 336.4 | 70 ± 15 mL/min/kg | 158 ± 31.1 ng/mL | 4 ± 0.5 h | 1.1 ± 0.6 h | 4 ± 0.5 h | 11 ± 1.8 h^2 | 11.8 ± 2.1^ h^2 | 3.0 ± 0.3 h | 1022 ± 214.5 ng·h/mL |  |  |  |  | 

Source: patent US20250092010A1, “DIHYDRO-2H-ISOINDOLE ESTER COMPOUND” (Shanghai Maius Pharmaceutical Co. Ltd., priority 2021, published 2025)
